{
  "source": "paper PMC7672456",
  "about": "(Nucleic Acids Research, 2020)",
  "key": {"[1]": {"molecular_target": "T1, PfLysRS (Plasmodium falciparum, UniProt Q8IDJ8)", "T1 sequence (Q8IDJ8 77-583 limits assumed)": "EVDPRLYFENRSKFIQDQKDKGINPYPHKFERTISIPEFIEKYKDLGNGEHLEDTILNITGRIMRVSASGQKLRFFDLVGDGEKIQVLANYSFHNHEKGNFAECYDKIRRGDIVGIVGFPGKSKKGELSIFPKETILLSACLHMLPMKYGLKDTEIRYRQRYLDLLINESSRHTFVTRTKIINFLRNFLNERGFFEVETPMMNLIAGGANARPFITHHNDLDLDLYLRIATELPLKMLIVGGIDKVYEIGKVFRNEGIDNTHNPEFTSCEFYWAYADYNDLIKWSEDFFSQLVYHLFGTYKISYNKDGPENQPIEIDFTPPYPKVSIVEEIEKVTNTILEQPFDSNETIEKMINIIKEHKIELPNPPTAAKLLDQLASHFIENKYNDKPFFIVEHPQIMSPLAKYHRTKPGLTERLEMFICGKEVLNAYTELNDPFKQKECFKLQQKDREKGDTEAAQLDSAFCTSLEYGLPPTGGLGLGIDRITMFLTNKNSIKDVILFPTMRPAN", "conditions": "cited from earlier work"}, "[2]": {"molecular_target": "T1, PfLysRS", "assay": "Thermal shift assay", "assay_type": "binding", "conditions": "for increase of Tm of PfLysRS: 200 μM compound"}, "[3]": {"tested_on": "mammalian protein translation system", "assay": "Mammalian protein translation assay in rabbit reticulocyte lysate", "assay_type": "biochemical", "conditions": "firefly luciferase mRNA"}, "[4]": {"tested_on": "P. falciparum strain 3D7", "assay": "In vitro Plasmodium growth assay", "assay_type": "cell-based, Plasmodium falciparum"}, "[5]": {"molecular_target": "T1, PfLysRS", "assay": "Surface plasmon resonance", "assay_type": "binding"}, "[6]": {"molecular_target": "T2, HsLysRS (Homo sapiens, UniProt Q15046)", "T2 sequence (Q15046 70-581)": "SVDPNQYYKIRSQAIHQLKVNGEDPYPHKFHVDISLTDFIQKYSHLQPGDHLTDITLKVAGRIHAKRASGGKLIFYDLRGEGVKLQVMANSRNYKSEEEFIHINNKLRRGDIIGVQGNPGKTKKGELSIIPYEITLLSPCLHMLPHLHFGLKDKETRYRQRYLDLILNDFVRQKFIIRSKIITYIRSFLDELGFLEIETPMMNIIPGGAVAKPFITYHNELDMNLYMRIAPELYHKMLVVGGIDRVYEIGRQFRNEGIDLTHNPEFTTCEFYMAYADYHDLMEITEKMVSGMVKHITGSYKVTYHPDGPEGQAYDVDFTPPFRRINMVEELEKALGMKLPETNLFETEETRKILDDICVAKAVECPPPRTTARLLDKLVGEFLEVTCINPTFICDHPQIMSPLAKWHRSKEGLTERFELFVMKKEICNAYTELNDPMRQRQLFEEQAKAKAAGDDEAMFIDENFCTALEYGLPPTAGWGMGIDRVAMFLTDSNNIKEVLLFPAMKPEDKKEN", "assay": "Thermal shift assay", "assay_type": "binding", "conditions": "in the presence or absence of L-lysine"}, "[7]": {"molecular_target": "T2, HsLysRS", "assay": "ATP hydrolysis assay", "assay_type": "biochemical"}, "[8]": {"conditions": "phase I, patients, oral; cited from earlier work"}},
  "data": [
    {"molecule": "C[C@H]1CCC[C@H](C[C@H]2Cc3cc(O)cc(O)c3C(=O)O2)O1", "note": "[cladosporin]", "values": [
      {"measurement": "IC50", "setting": "[1]", "result": "~0.004", "unit": "µM"},
      {"measurement": "fold lower IC50 on PfLysRS compared to other eukaryotic LysRSs including human LysRS", "setting": "[1]", "result": 1000, "unit": "fold"}
    ]},
    {"molecule": "COc1cc(N2CCC(N3CCN(C)CC3)CC2)ccc1Nc1ncnc(Nc2ccccc2S(=O)(=O)C(C)C)n1", "note": "[ASP3026, N-{2-Methoxy-4-[4-(4-methylpiperazin-1-yl)piperidin-1-yl]phenyl}-N'-[2-(propane-2-sulfonyl)phenyl]-1,3,5-triazine-2,4-diamine]", "values": [
      {"measurement": "Kd", "setting": "[2]", "result": "~0.238", "unit": "µM"},
      {"measurement": "increase of Tm of PfLysRS", "setting": "[2]; in the presence of L-lysine (500 μM)", "result": 8.0, "unit": "°C"},
      {"measurement": "increase of Tm of PfLysRS", "setting": "[2]; without L-lysine, 10 μM PfLysRS", "result": 10.0, "unit": "°C"},
      {"measurement": "IC50", "setting": "[3]", "result": "> 1000", "unit": "µM"},
      {"measurement": "IC50", "setting": "[4]; Plasmodium falciparum, 3D7, 72 h", "result": "5.61 ± 0.26", "unit": "µM"},
      {"measurement": "parasite growth and morphology", "setting": "[4]; synchronized ring stage, 25 μM, monitored over 72 h, Giemsa smears", "result": "stopped growing completely until they eventually died"},
      {"measurement": "Kd", "setting": "[5]", "result": 0.239, "unit": "µM"},
      {"measurement": "koff", "setting": "[5]", "result": 0.0063, "unit": "s⁻¹"},
      {"measurement": "kon", "setting": "[5]", "result": 26400, "unit": "M⁻¹ s⁻¹"},
      {"measurement": "thermal stability of HsLysRS", "setting": "[6]", "result": "could not increase the thermal stability"},
      {"measurement": "IC50", "setting": "[7]", "result": "> 250", "unit": "µM"},
      {"measurement": "fold less potent on HsLysRS than on PfLysRS (IC50 ratio)", "setting": "[7]; ATP hydrolysis IC50 HsLysRS versus PfLysRS", "result": "over 380 fold"},
      {"measurement": "half-life range", "setting": "[8]", "result": "22 to 85", "unit": "h"},
      {"measurement": "median half-life", "setting": "[8]", "result": 35, "unit": "h"}
    ]}
  ]
}
